Assay results as given in US10561708B2, “Anti-tumor therapy” (The University of Chicago, priority 2013, dated 2020).

Tests used:
CWR-R1 xenografts = test: Xenograft tumor growth in nude mice; format: in vivo; details: CWRR1
Method: (§1) To determine the potential therapeutic value of targeting the JAK/STAT pathway in prostate cancer, the cells were exposed to the specific JAK2 inhibitor SAR302503. Since it is expected that the greatest value of inhibiting the JAK/STAT pathway is in combination with other toxic insults we evaluated the effect of ionizing radiation used in the treatment of CRPC, and SAR302503 in the genetically related CWR lines (FIG. 2). Cells were plated in p60 dishes with or w/o 0.5 μM of SAR302503 and irradiated with 2 or 5 Gy (or left un-irradiated). Colonies counting and estimation of survival fractions were performed as described elsewhere (Khodarev et. al., 2007, Cancer Research). […] To extend these observations in preclinical animal models we established xenografts of CWR-R1 and CWR-22RV1. For this purpose 10^7 cells were injected in the right flank of each nude mice (5 animals per group) and when tumors reached 200 mm^3 in volume mice were either left un-treated, or treated with SAR302503 (120 mg/kg, once a day, 4 days) or irradiated locally (2×10 Gy) or subjected to combined treatments with SAR302503 and IR. […] At the same tumors treatment by SAR302503 alone led to the 4-days growth delay compared with control tumors. These effects were not observed in CWRR1. Molecular differences between two tumors are currently under investigation. The difference between CWR-R1 and CWR-22RV1 is especially noteworthy since they are isogenic, castrate resistant, and carry both native and splice variant androgen receptor, which is reminiscent of the findings in human prostate cancer specimens.

CWR-22RV1 xenografts = test: Xenograft tumor growth in nude mice; format: in vivo
Method: as §1

CWR-R1 cells = test: Clonogenic survival with ionizing radiation with or w/o SAR302503; format: cell-based; details: 0.5 μM SAR302503, 2 or 5 Gy
Method: (§2) These cell lines were characterized for relative radioresistance using a clonogenic assay. Briefly, the cells were cultured in their appropriate media at 5% CO2 at 37° C. Optimal cell plating concentrations for a p60 dish were determined for each cell line. The majority of cell lines were plated in triplicate at concentrations of 100 cells/plate for control, 1000 cells/plate for 2 Gy, 2000 cells/plate for 5 Gy, and 3000 cells/plate for 8 Gy. Plates were irradiated 24 hours after plating with either 2, 5, or 8 Gy using a irradiated using a Nordion Gammacell ^60Co irradiator operating at a dose rate of ˜18 Gy/minute. Cells were allowed to grow for 10-21 days (depending on the cell line) until colonies were >50 cells. Plates were then fixed with formalin and stained with crystal violet. Colonies with more than 50 cells were counted. Clonogenic survival for Clonogenic data was obtained for all cell lines tested in screen.
(§3) To determine the potential therapeutic value of targeting the JAK/STAT pathway in prostate cancer, the cells were exposed to the specific JAK2 inhibitor SAR302503. Since it is expected that the greatest value of inhibiting the JAK/STAT pathway is in combination with other toxic insults we evaluated the effect of ionizing radiation used in the treatment of CRPC, and SAR302503 in the genetically related CWR lines (FIG. 2). […]

CWR-22RV1 cells = test: as above; format: cell-based; details: 0.5 μM SAR302503, 2 or 5 Gy
Method: as §2, §3

## Cc1cnc(Nc2ccc(OCCN3CCCC3)cc2)nc1Nc1cccc(S(=O)(=O)NC(C)(C)C)c1 [SAR302503]
CWR-R1 xenografts; 120 mg/kg once a day 4 days + IR 2×10 Gy
  tumor growth, combined treatment with IR: not observed
CWR-R1 xenografts; 120 mg/kg, once a day, 4 days
  growth delay compared with control tumors, inhibitor alone: not observed
CWR-22RV1 xenografts; 120 mg/kg once a day 4 days + IR 2×10 Gy, by day 9 after beginning of treatment
  tumor growth, combined treatment with IR: significant suppression of tumor growth
CWR-22RV1 xenografts; 120 mg/kg, once a day, 4 days
  growth delay compared with control tumors, inhibitor alone: 4 days
CWR-R1 cells
  enhancement of cytotoxic activity of IR (survival fraction, colonies): not enhanced
CWR-22RV1 cells
  enhancement of effects of IR (survival fraction, colonies): significantly enhanced
